Source: US9375000B2, “Pesticidal arylpyrrolidines” (Bayer Intellectual Property GmbH, priority 2011, dated 2016)

Tests used:
Assay type in all cases: in vivo
[1] = test system: Cucurbit Leaf Beetle (Aulacophora femoralis); assay: Cucurbit leaf beetle (Aulacophora femoralis) cucumber leaf dip test; conditions: after 7 days
Method in brief: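 Cucumber leaves dipped in compound formulated with DMF and polyoxyethylene alkyl phenyl ether, diluted in water, with ammonium salt or ammonium salt plus penetration enhancer at 1000 ppm added if necessary; dried leaves placed on sterilized soil with five second-instar larvae. Kept at 25° C; larval mortality counted after 7 days.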

[2] = test system: Two-Spotted Spider Mite (Tetranychus urticae); assay: Two-spotted spider mite (Tetranychus urticae) spray test on kidney bean; conditions: after 7 days
Method in brief: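 Kidney bean plants at the two-leaf stage carried 50-100 adult mites and were sprayed one day later with compound in DMF/polyoxyethylene alkyl phenyl ether diluted in water. Ammonium salt and penetration enhancer at 1000 ppm were added if needed. Acaricidal activity (% mites killed) was scored after 7 days in a greenhouse.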

[3] = test system: Tobacco Cutworm (Spodoptera litura) Larvae; assay: Tobacco cutworm (Spodoptera litura) larvae, sweet potato leaf dip test; conditions: dead larvae after 7 days
Experimental: (§1) Unless not mentioned otherwise, the test solutions were prepared as follows:
(§2) Solvent: 3 parts by weight Dimethylformamide
(§3) Emulsifier: 1 part by weight Polyoxyethylene alkyl phenyl ether
(§4) In order to make an appropriate formulation of an active compound, 1 part by weight of the active compound is mixed with the above mentioned amount of solvent and emulsifier and the mixture is diluted with water to a prescribed concentration. Ammonium salt or ammonium salt and penetration enhancer in a dosage of 1000 ppm are added to the desired concentration if necessary.
Leaves of sweet potato were immersed in the test solution at the appropriate concentration, and the leaves were dried in air. The leaves were then placed in a petri dish having a diameter of 9 cm, and ten Spodoptera litura at third instar larvae were released therein. The petri dishes were placed in a temperature-controlled chamber at 25° C. After 2 days and 4 days more sweet potato leaves were added. After 7 days, the number of dead larvae was counted to calculate the insecticidal activity. An insecticidal activity of 100% means that all larvae were killed, whereas an insecticidal activity of 0% means that no larva was killed. In the current test, the results of two petri dishes for each treatment were averaged.

Thrips palmi = Thrips palmi spray test (THRIPL); conditions: active compound concentration 20 ppm; after 6 days
Experimental: as §1, §2, §3, §4
The compound solutions are sprayed to a cucumber seedling (Cucumis sativus). After drying, the treated plant is placed in a plastic stand. About 100 thrips-eggs (Thrips palmi) on a piece of filter paper are attached to the plant and covered with a cage to keep 100% humidity. The plant is kept in a room at 23° C. After 6 days activity in % is evaluated by feeding damage degree. An insecticidal activity of 100 means that there was no feeding damage, whereas an insecticidal activity of 0% means that there is no difference to the untreated control.

[4] = test system: Larvae of Spodoptera litura; assay: Larvae of Spodoptera litura, method using artificial feeds; conditions: artificial feed, after 7 days
Method in brief: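 Compound formulated in dimethylformamide with polyoxyethylene alkyl phenyl ether emulsifier, water-diluted and poured onto artificial diet. Five 3rd-instar Spodoptera litura larvae per cup, held at 25° C and 50-60% humidity. Mortality after 7 days expressed as pesticidal ratio.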

[5] = active compound concentration 20 ppm
[6] = active compound concentration 4 ppm

| SMILES | insecticidal activity [1, 5] [%] | acaricidal activity [2, 6] [%] | insecticidal activity [3, 6] [%] | insecticidal activity (by feeding damage degree) (Thrips palmi) [%] | acaricidal activity [2, 5] [%] | insecticidal activity (pesticidal ratio) [4, 5] [%] | insecticidal activity [3, 5] [%] | insecticidal activity (pesticidal ratio) [4, 6] [%] | insecticidal activity [1, 6] [%] |
| --- | --- | --- | --- | --- | --- | --- | --- | --- | --- |
| O=C(CC(F)(F)F)NCc1ccc(N2CCC(c3cc(Cl)cc(Cl)c3)(C(F)(F)F)C2O)cc1F (mixture of isomers) [A1-101] | 100 | 100 | 80 |  |  |  |  |  |  |
| O=C(CC(F)(F)F)NCc1ccc(N2CCC(c3cc(Cl)cc(Cl)c3)(C(F)(F)F)C2O)cc1Br (mixture of isomers) [A1-112] | 100 | 100 | 100 | 98 |  |  |  |  |  |
| CCC(=O)NCc1ccc(N2CCC(c3cc(Cl)c(Cl)c(Cl)c3)(C(F)(F)F)C2O)cc1CC (mixture of isomers) [A1-140] |  | 98 | 100 |  |  |  |  |  |  |
| CCC(=O)NCc1ccc(N2CCC(c3cc(C(F)(F)F)cc(C(F)(F)F)c3)(C(F)(F)F)C2O)cc1CC (mixture of isomers) [A1-195] | 100 | 100 | 100 |  |  |  |  |  |  |
| CCC(=O)NC(C)c1ccc(N2CCC(c3cc(Cl)c(Cl)c(Cl)c3)(C(F)(F)F)C2O)cc1 (mixture of isomers) [A2-13] |  |  |  |  | 100 | 100 | 100 |  |  |
| CCC(=O)NCc1ccc(N2CCC(c3cc(F)cc(Cl)c3)(C(F)(F)F)C2O)nc1C(F)(F)F (mixture of isomers) [A3-167] |  |  | 80 |  | 90 |  |  |  |  |
| CCC(=O)NCc1ccc(N2CCC(c3cc(F)c(F)c(F)c3)(C(F)(F)F)C2O)nc1C(F)(F)F (mixture of isomers) [A3-189] | 100 |  | 80 |  |  |  |  |  |  |
| O=C(NCc1ccc(N2CCC(c3cc(F)c(F)c(F)c3)(C(F)(F)F)C2O)nc1C(F)(F)F)C1CC1 (mixture of isomers) [A3-192] | 100 |  | 100 |  |  |  |  |  |  |
| CC(=O)NCc1ccc(N2CCC(c3cc(Cl)c(F)c(Cl)c3F)(C(F)(F)F)C2O)nc1C(F)(F)F (mixture of isomers) [A3-210] | 100 | 100 | 100 |  |  |  |  |  |  |
| CC(=O)NCc1ccc(N2CCC(c3cc(Cl)c(F)c(Cl)c3)(C(F)(F)F)C2O)cc1C(F)(F)F (stereo not drawn) [A1-271] |  | 100 | 100 |  |  |  |  |  |  |
| CC(=O)NCc1ccc(N2CCC(c3cc(Cl)c(Cl)c(C(F)(F)F)c3)(C(F)(F)F)C2O)cc1C(F)(F)F (stereo not drawn) [A1-348] | 100 |  | 100 |  | 100 |  |  |  |  |
| CCC(=O)NCc1ccc(N2CCC(c3cc(Cl)c(Cl)c(C(F)(F)F)c3)(C(F)(F)F)C2O)cc1C(F)(F)F (stereo not drawn) [A1-349] | 100 |  | 100 |  | 100 |  |  |  |  |
| O=C(NCc1ccc(N2CCC(c3cc(Cl)c(Cl)c(C(F)(F)F)c3)(C(F)(F)F)C2O)cc1C(F)(F)F)C1CC1 (stereo not drawn) [A1-352] | 100 |  | 100 |  | 100 |  |  |  |  |
| O=C(NCc1ccc(N2CCC(c3cc(Cl)c(Cl)c(Cl)c3)(C(F)(F)F)C2O)nc1C(F)(F)F)C1CC1 (stereo not drawn) [A3-16] | 100 |  |  |  | 100 | 100 | 100 |  |  |
| O=C(NCc1ccc(N2CCC(c3cc(C(F)(F)F)cc(C(F)(F)F)c3)(C(F)(F)F)C2O)nc1C(F)(F)F)C1CC1 (stereo not drawn) [A3-27] | 100 |  |  |  | 100 | 100 | 100 |  |  |
| CCc1nc(N2CCC(c3cc(Cl)c(Cl)c(Cl)c3)(C(F)(F)F)C2O)ccc1CNC(=O)C1CC1 (stereo not drawn) [A3-93] | 100 |  | 100 |  | 100 |  |  |  |  |
| CCC(=O)NCc1cnc(N2CCC(c3cc(Cl)cc(Cl)c3)(C(F)(F)F)C2O)nc1C(F)(F)F (stereo not drawn) [A4-2] |  |  | 100 |  |  |  |  |  |  |

| SMILES | insecticidal activity [1, 5] [%] | acaricidal activity [2, 6] [%] | insecticidal activity [3, 6] [%] | insecticidal activity (by feeding damage degree) (Thrips palmi) [%] | acaricidal activity [2, 5] [%] | insecticidal activity (pesticidal ratio) [4, 5] [%] | insecticidal activity [3, 5] [%] | insecticidal activity (pesticidal ratio) [4, 6] [%] | insecticidal activity [1, 6] [%] |
| --- | --- | --- | --- | --- | --- | --- | --- | --- | --- |
| CS(=O)(=O)CC(=O)NCc1cnc(N2CCC(c3cc(Cl)cc(Cl)c3)(C(F)(F)F)C2O)nc1C(F)(F)F (stereo not drawn) [A4-11] |  | 100 | 100 | 90 |  |  |  |  |  |
| CC(=O)NCc1cnc(N2CCC(c3cc(Cl)c(Cl)c(Cl)c3)(C(F)(F)F)C2O)nc1C(F)(F)F (stereo not drawn) [A4-12] |  | 100 | 100 | 90 |  |  |  |  |  |
| Cc1nc(N2CCC(c3cc(Cl)c(Cl)c(Cl)c3)(C(F)(F)F)C2O)ncc1CNC(=O)C1CC1 (stereo not drawn) [A4-49] | 100 | 98 |  | 98 |  | 100 |  | 100 |  |
| CC(=O)NCc1cnc(N2CCC(c3cc(Cl)c(F)c(Cl)c3F)(C(F)(F)F)C2O)nc1C(F)(F)F (stereo not drawn) [A4-111] | 100 | 100 | 100 |  |  |  |  |  |  |
| O=C(NCc1cnc(N2CCC(c3cc(Cl)c(Cl)c(Cl)c3)(C(F)(F)F)C2O)nc1C(F)F)C1CC1 (stereo not drawn) [A4-219] |  | 100 |  | 90 |  |  |  | 100 | 100 |
| O=C(CC(F)(F)F)NCc1cnc(N2CCC(c3cc(Cl)c(Cl)c(Cl)c3)(C(F)(F)F)C2O)nc1C(F)F (stereo not drawn) [A4-221] |  | 100 |  | 90 |  |  |  | 100 | 100 |
| CCC(=O)NCc1cnc(N2CCC(c3cc(C(F)(F)F)cc(C(F)(F)F)c3)(C(F)(F)F)C2O)cc1C(F)(F)F (stereo not drawn) [A5-24] | 100 |  |  | 90 | 100 | 100 |  | 100 | 100 |
| O=C(CC(F)(F)F)NCc1cnc(N2CCC(c3cc(C(F)(F)F)cc(C(F)(F)F)c3)(C(F)(F)F)C2O)cc1C(F)(F)F (stereo not drawn) [A5-29] | 100 |  |  | 90 | 100 | 100 |  | 100 | 100 |
| CS(=O)(=O)CC(=O)NCc1cnc(N2CCC(c3cc(C(F)(F)F)cc(C(F)(F)F)c3)(C(F)(F)F)C2O)cc1C(F)(F)F (stereo not drawn) [A5-33] | 100 |  |  | 90 | 98 | 100 |  | 100 | 100 |
| CC(=O)NCc1cnc(N2CCC(c3cc(Cl)c(F)c(Cl)c3F)(C(F)(F)F)C2O)cc1C(F)(F)F (stereo not drawn) [A5-78] | 100 | 100 | 100 |  |  |  |  |  |  |
| CCC(=O)NCc1cnc(N2CCC(c3cc(Cl)c(F)c(Cl)c3F)(C(F)(F)F)C2O)cc1C(F)(F)F (stereo not drawn) [A5-79] |  | 100 | 100 | 90 |  |  |  |  |  |
| O=C(NCc1ccc(N2CC(c3cc(Cl)c(Cl)c(Cl)c3)(C(F)(F)F)CC2O)nc1C(F)(F)F)C1CC1 (stereo not drawn) [A′3-16] | 100 |  | 100 |  |  |  |  |  |  |
| O=C(NCc1ccc(N2CCC(c3cc(C(F)(F)F)cc(C(F)(F)F)c3)(C(F)(F)F)C2=O)cc1Cl)C1CC1 (stereo not drawn) [B1-27] |  |  |  |  |  | 100 | 100 |  |  |
| O=C(NCc1ccc(N2CCC(c3cc(Cl)c(Cl)c(Cl)c3)(C(F)(F)F)C2=O)nc1C(F)(F)F)C1CC1 (stereo not drawn) [B3-16] |  |  |  |  |  | 100 | 100 |  |  |
| O=C(NCc1ccc(N2CC(c3cc(C(F)(F)F)cc(C(F)(F)F)c3)(C(F)(F)F)CC2=O)nc1Cl)C1CC1 (stereo not drawn) [C1-27] | 100 |  |  |  |  | 100 | 100 |  |  |
| CC(NC(=O)C1CC1)c1ccc(N2CC(c3cc(C(F)(F)F)cc(C(F)(F)F)c3)(C(F)(F)F)CC2=O)cc1 (stereo not drawn) [C2-27-b] | 100 |  |  |  | 100 | 100 | 100 |  |  |
| O=C(NCc1ccc(N2CC(c3cc(Cl)c(Cl)c(Cl)c3)(C(F)(F)F)CC2=O)nc1C(F)(F)F)C1CC1 (stereo not drawn) [C3-16] |  |  |  |  |  | 100 | 100 |  |  |
